Measured values reported in patent US20250326859A1, “ANTI-CANCER ANTIBODIES, COMBINATION THERAPIES, AND USES THEREOF” (PRECISION BIOLOGICS, INC., priority 2022, published 2025).

B1: NEO-101: Chimeric NPC-1 antibody, engineered in CHO-DG44 production cell clone 4B7; targets a variant of MUC5AC (protein)
light: QVVLTQSPVIMSASPGEKVTMTCSASSSISYMYWYQQKPGTSPKRWIYDTSKLASGVPARFSGSGSGTSYSLTISNMEAGDAATYYCHQRDSYPWTFGGGTNLEIK
heavy: QVQLKESGPDLVAPSQSLSITCTVSGFSLSKFGVNWVRQPPGKGLEWLGVIWGDGSTSYNSGLISRLSISKENSKSQVFLKLNSLQADDTATYYCVKPGGDYWGHGTSVTVSS

Experiments:
[1] = test system: colorectal adenocarcinoma cells; assay: Flow cytometry antigen expression, colorectal adenocarcinoma cell lines; type: binding, human; conditions: primary antibody at 10 ug/mL; multiple colorectal adenocarcinoma cell lines
Method: (§1) FIG. 1. NEO-101, NEO-201 and NEO-301 Antigen Expression by Human Normal and Cancer Cell Lines. NEO-101, NEO-201 and NEO-301 specific antigen expression in various cell lines were detected by Flow Cytometry. Viable cell suspensions were incubated with primary antibody NEO-101, NEO-201 and NEO-301 separately at 10 ug/mL. Human IgG (10 ug/mL) was used as negative control. Goat anti-human IgG (Fc)-phycoerythrin conjugate was used for primary antibody detection; 7-ADD was used for excluding dead cells from analysis. The staining was measured by Flow Cytometry (Guava instrument, Millipore). Median fluorescent intensity (MFI) and % of stained cells was used for determining presence of specific antigen on each cell line.
(§2) Antigen expression in cell lines of various origins were detected by Flow Cytometry. Viable cell suspensions were incubated with primary antibody NEO-101, NEO-201 and NEO-301 separately at 10 ug/mL. Human IgG (10 ug/mL) was used as negative control. Goat anti-human IgG (Fc)-phycoerythrin conjugate was used for primary antibody detection; 7-ADD was used for excluding dead cells from analysis. The staining was measured by Flow Cytometry (Guava instrument, Millipore). Median fluorescent intensity (MFI) and % of stained cells was used for determining presence of specific antigen on each cell line.
(§3) The cell lines tested included breast cancer cells, cervical squamous carcinoma cells, colorectal adenocarcinoma cells, lung adenocarcinoma cells, lung carcinoma cells, lung squamous carcinoma cells, myelogenous leukemia cells, ovarian cancer cells, pancreatic adenocarcinoma cells, pancreatic carcinoma cells, prostate adenocarcinoma cells, and prostate cancer cells. Additionally, normal lung cells were tested.

[2] = test system: pancreatic adenocarcinoma cells; assay: Flow cytometry antigen expression, pancreatic adenocarcinoma cell lines; type: binding, human; conditions: primary antibody at 10 ug/mL
Method: as §1, §2, §3

[3] = test system: lung adenocarcinoma cells; assay: Flow cytometry antigen expression, lung adenocarcinoma cell lines; type: binding, human; conditions: primary antibody at 10 ug/mL; multiple lung adenocarcinoma cell lines
Method: as §1
as §2, with “line. […]” for “line.”

[4] = test system: lung squamous carcinoma cells; assay: Flow cytometry antigen expression, lung squamous cell carcinoma cell lines; type: binding, human; conditions: primary antibody at 10 ug/mL; multiple lung squamous cell carcinoma cell lines
Method: as §1
as §2, with “line. […]” for “line.”

colon cancer samples [5] = assay: IHC on cancer tissue microarray, colon cancer; type: binding, human; conditions: biotinylated antibody
From the text: (§4) FIG. 2. Immunohistochemistry results from cancer tissue arrays. Immunohistochemistry method (IHC) was used for determining the presence of NEO-101/102, NEO-201 and NEO-301 antigens on paraffin microarrays and tissues. These primary antibodies (NEO-101/NEO-102, NEO-201 and NEO-301) were biotinylated prior to use. Paraffin tissue Microarrays and slides of tissues were reacted with the primary Ab after inactivating endogenous peroxidase and blocking the slides. Staining was detected with streptavidin-horseradish peroxidase conjugate and visualized with chromogen. Biotinylated human IgG1 was used as negative control and mouse anti-human cytokeratin monoclonal antibody was used as positive control. Antibody staining is measured as % and intensity of tumor epithelial cells and luminal secretion within the whole tissue section.
(§5) Immunohistochemistry (IHC) was used for determining the presence of NEO-101/102, NEO-201 and NEO-301 antigens on paraffin microarrays and tissues. These primary antibodies (NEO-101/NEO-102, NEO-201 and NEO-301) were biotinylated prior to use. Paraffin tissue microarrays and slides of tissues were reacted with the primary antibody after inactivating endogenous peroxidase and blocking the slides. Staining was detected with streptavidin-horseradish peroxidase conjugate and visualized with chromogen. Biotinylated human IgG1 was used as negative control and mouse anti-human cytokeratin monoclonal antibody was used as positive control. Antibody staining was measured as % and intensity of tumor epithelial cells and luminal secretion within the whole tissue section.
(§6) The cancer cells and normal cells tested were of the following tissue origins: Colon, Pancreas, Lung, Larynx, Prostate, Esophagus, Uterus, Stomach, Skin, Breast, and Ovary.

[6] = test system: pancreatic cancer samples; assay: IHC on cancer tissue microarray, pancreatic cancer; type: binding, human; conditions: biotinylated antibody
From the text: as §4, §5, §6

lung cancer samples [7] = assay: IHC on cancer tissue microarray, lung cancer; type: binding, human; conditions: biotinylated antibody
From the text: as §4
(§7) Immunohistochemistry (IHC) was used for determining the presence of NEO-101/102, NEO-201 and NEO-301 antigens on paraffin microarrays and tissues. These primary antibodies (NEO-101/NEO-102, NEO-201 and NEO-301) were biotinylated prior to use. […] Staining was detected with streptavidin-horseradish peroxidase conjugate and visualized with chromogen. […] Antibody staining was measured as % and intensity of tumor epithelial cells and luminal secretion within the whole tissue section. […]

uterus cancer samples = assay: IHC on cancer tissue microarray, uterus cancer; type: binding, human; conditions: biotinylated antibody
From the text: as §4, §7

skin cancer samples = assay: IHC on cancer tissue microarray, skin cancer; type: binding, human; conditions: biotinylated antibody
From the text: as §4, §7

colon cancer samples [8] = assay: IHC on paraffin tissue sections, colon cancer; type: binding, human; conditions: biotinylated antibody
From the text: as §4, §5, §6

[9] = test system: pancreatic cancer samples; assay: IHC on paraffin tissue sections, pancreatic cancer; type: binding, human; conditions: biotinylated antibody
From the text: as §4, §5, §6

lung cancer samples [10] = assay: IHC on paraffin tissue sections, lung cancer; type: binding, human; conditions: biotinylated antibody, relatively fewer samples tested
From the text: as §4, §7

Human tumor xenografts = assay: In vivo localization of radiolabeled antibodies in tumor-bearing mice; set-up: species or system SCID or nude mice; conditions: 111In or 86Y label, intravenous, paper example in present tense
From the text: Antibodies NEO-101, NEO-201, and NEO-301 are radiolabeled by conjugation to either ^111In or ^86Y using the acyclic chelate CHX-A″-DTPA. The conjugation molar ratios are empirically determined. Human tumor xenografts are introduced into SCID or nude mice, including the cell lines identified in FIG. 1 as being reactive with NEO-101, NEO-201, or NEO-301 in cell culture and optionally further cancer cell lines detected to bind those antibodies. Control xenografts non-reactive with these antibodies are also utilized. Following intravenous administration of radiolabeled antibodies in tumor-bearing mice, cell samples are harvested and analyzed. Labeled antibody biodistribution is determined with respect to the tumor and other tissues including liver and kidneys.
Additionally, xenograft bearing mice are subjected to imaging studies including planar gamma-imaging performed at multiple time points to assess the stability of labeled antibody binding to the tumor cells and measure the level of accumulation of radiolabeled antibody in other tissues.

esophagus cancer samples = assay: IHC on cancer tissue microarray, esophagus cancer; type: binding, human; conditions: biotinylated antibody
From the text: as §4, §7

breast cancer samples = assay: IHC on cancer tissue microarray, breast cancer; type: binding, human; conditions: biotinylated antibody
From the text: as §4, §7

stomach cancer samples = assay: IHC on cancer tissue microarray, stomach cancer; type: binding, human; conditions: biotinylated antibody
From the text: as §4, §7

Row | Molecule | antigen expression detected by flow cytometry [1] | antigen expression detected by flow cytometry [2] | antigen expression detected by flow cytometry [3] | antigen expression detected by flow cytometry [4] | cancer samples positive for the antigen (colon cancer samples [5]) [%] | cancer samples positive for the antigen [6] [%] | cancer samples positive for the antigen (lung cancer samples [7]) [%] | cancer samples positive for the antigen (uterus cancer samples) [%] | cancer samples positive for the antigen (skin cancer samples) [%] | cancer samples positive for the antigen (colon cancer samples [8]) [%] | cancer samples positive for the antigen [9] [%] | cancer samples positive for the antigen (lung cancer samples [10]) [%] | binding of radiolabeled antibody to its antigen in vivo (Human tumor xenografts) | cancer samples positive for the antigen (esophagus cancer samples) [%] | cancer samples positive for the antigen (breast cancer samples) [%] | cancer samples positive for the antigen (stomach cancer samples) [%]
1 | NEO-201: Humanized 16C3 antibody; binds epitopes in CEACAM5 and CEACAM6 | detected | detected | detected | detected | 85 | 86 | 61 | 51 | 16 | 94 | 83 | 90 | able to bind their respective antigens |  |  | 
2 | NEO-301: Chimeric 31.1 antibody, 2 amino acid changes in HC constant domain, produced in high titer CHO-S cells; binds A33 antigen | detected | detected |  |  | 87 | 57 | 56 |  |  | 52 | 47 |  | able to bind their respective antigens | 43 | 78 | 
3 | B1 | detected | detected |  |  | 61 | 31 |  | 41 |  | 87 | 82 | 67 | able to bind their respective antigens |  |  | 30
